Test results as given in patent US8283324B2, “Immunomodulatory and anti-tumour peptides” (Centro de Ingenieria Genetica y Biotecnologia, priority 2006, dated 2012).

Assays:
[1] = test system: TC-1 cells; assay: growth of tumor cells, crystal violet, TC-1; format: cell-based, C57BI/6; settings: 9 μM to 300 μM, 72 h; FIG. 9
Procedure: (§1) For this assay, TC-1, H-125 (non-small human ling cancer cells) and L929) murine fibroblast) cells were seeded in 96-well culture plates (Costar) at a 2×10^4 cells/ml in Dulbecco's modified Eagle's medium (DMEM)(Gibco) supplemented with Calf Fetal Serum (Gibco). After 24 h, the peptides were added to the culture in a range of 9 μM to 300 μM. […] Plates were extensively washed with tap water and plates were read at 562 nm. A pro-apoptotic peptide with a marked anti-proliferative effect in vitro was employed as positive control (Perea, S., et al (2004) Antitumor Effect of a Novel Proapoptotic Peptide that Impairs the Phosphorylation by the Protein Kinase 2 Cancer Research 64: 7127-7129).

[2] = test system: MB16-F10 tumor cells; assay: anti-tumoral effect in a melanoma model; format: in vivo, C57BI/6 female mice; settings: 4 mg per kg
Procedure: Eight-to-ten weeks-old C57BI/6 female mice were used for this assay (n=10 animals per experimental group). For tumor graft, MB16-F10 tumor cells were used, being resuspended in phosphate-buffered saline (PBS). An amount of 15,000 cells were inoculated in a 200 μl volume by subcutaneous route in the right hind limb. After 4 days, the L-2 peptide was administered, with the second injection administered 7 after the first, and the third immunization was administered 14 days after. In this assay was evaluated a dose of 4 mg of peptide per kg of animal weight. Parameters evaluated to measure the anti-tumoral effect of the given peptide during this assay were the time of tumor grafting and the animal survival.

[3] = test system: IFN-γ gene; assay: IFN-γ gene expression in human mononuclear cells (RT-PCR); format: cell-based; settings: 40 μg/ml, 18 h; mRNA normalized against β-actin; FIG. 3A
Procedure: For this assay, human mononuclear cells were isolated by a Ficoll-Hypaque gradient from a leukocyte concentrate or “Buffy Coat” of a donor. Up to 5×10^6 were seeded in 24-well plates in RPMI 1640 medium supplemented with 10% calf fetal serum. Each peptide was further added at 40 μg/ml in a 0.1 ml volume of RPMI medium and cells were cultured for 18 h at 37° C. and 5% of CO2. Total RNA was extracted by using the TriReagent method. Afterwards, the expressions of IFN-α, IFN-γ and IL-12 genes were determined by the reverse transcription reaction and PCR amplification (RT-PCR kit, Perkin Elmer). Results are shown as relative amounts of messenger RNA normalized against expression levels of the β-actin housekeeping gene.

[4] = test system: H-125 (non-small human ling cancer cells); assay: growth of tumor cells, crystal violet, H-125; format: cell-based; settings: 9 μM to 300 μM, 72 h; FIG. 9
Procedure: as §1

[5] = test system: TC-1 tumor cells; assay: anti-tumoral effect in the TC-1 tumor model; format: in vivo; settings: 4 mg per kg s.c.
Procedure: Eight-to-ten weeks-old C57BI/6 female mice were used for this assay (n=10 animals per experimental group). For tumor graft, TC-1 tumor cells derived from C57BI/6 malignant epithelial lung cells were used, being resuspended in phosphate-buffered saline (PBS). An amount of 50,000 cells in a 200 μl volume was inoculated to mice by subcutaneous route in the right hind limb. The first peptide administration was carried out by subcutaneous route in the right flank once tumor reached a 100 mm^3 volume, and the second was carried out after 10 days. In this assay, a 4 mg per kg of weight dose was evaluated (80 μg/mice). Animal survival and tumor mass were the parameters evaluated to measure the anti-tumoral effect peptides of interest, as shown in FIGS. 4A and 4B. […] The Log Rank method was used as statistical analysis for detecting significant differences between groups.

[6] = test system: mice lung cancer 3LLD122 cells; assay: metastasis model of Lewis' carcinoma; format: in vivo, C57BI/6 female mice; settings: 4 mg/kg s.c. after 7 days; sacrifice 21 days after removal of primary tumor; FIG. 8
Procedure: Eight-to-ten weeks-old C57BI/6 female mice were used for this assay (n=8 animals per experimental group). These animals were inoculated in the posterior right footpad with 250,000 mice lung cancer 3LLD122 cells. After 7 days, a 4 mg/kg of body weight dose of the L-2 analogous peptide was subcutaneously injected. When tumors reached 8 mm in diameter, the primary tumor was surgically removed from the carrier leg. Mice were sacrificed 21 days after this surgical procedure. Lungs were weighed to indicate the amount of metastasis on them.

[7] = competition ELISA for heparin-binding capacity; settings: peptides at 2 μM with 250 units of heparin; FIG. 2
Procedure: This assay consists on a competition ELISA system, similar to the previously described one. The biotinylated LALF32-51 peptide was adsorbed to polystyrene plates (Costar, USA) in 1×PBS and incubated overnight at 4° C. Analogous peptides L-2, L-8, L-12 and L-20 were mixed at 2 μM with 250 units of heparin (Sodic Heparin, 5,000 U/ml, Liorad) in 1×PBS plus 0.1% of bovine serum albumin (BSA). Afterwards, mixes were added to an ELISA plate containing 0.02 μM of the biotinylated LALF32-51 peptide adsorbed to the solid surface. After a 1 h-incubation at room temperature, plates were washed five times with washing solution and the biotinylated LALF32-51 peptide fixed to the solid surface was detected by incubating for 45 min at 37° C. with streptavidin-peroxidase conjugate at a 1:2,000. Afterwards, plates were washed five times with washing solution and the substrate solution was added. After an additional incubation for 15 min, the reactions were stopped with 2 M sulphuric acid solution. The lack of heparin binding to the analogous peptides correlates with the […] optical density, because they are unable to displace the heparin bound to the biotinylated LALF32-51 peptide adsorb to the solid surface. The unlabeled LALF32-51 peptide at a 100× molar excess was used as control of the assay.

[8] = test system: TC-1 cells; assay: double challenge schedule with TC-1 tumor cells; format: in vivo; settings: second challenge, day 49 after the first challenge
Procedure: Animals without established tumors in the schedule of the previous example (n=6) were further challenged for a second time with 50,000 TC-1 cells in a 200 μl volume in PBS by subcutaneous route in the left hind limb (day 49 after the first challenge). The same amount of tumor cells were inoculated to “naïve” mice from the same litter as control group of the experiment, to guarantee the homogeneity in age, and were kept under the same conditions without receiving the peptide (n=10 animals). Parameters evaluated to measure the anti-tumoral effect of the L-2 peptide included the time of tumor grafting and animal survival.

[9] = at 100 mm^3 tumor volume and after 10 days, FIG. 4

For “HARIKPTFRRLKWKYKGKFW [Peptide L-2, alanine-substituted analogue of LALF 32-51]”, the anti-proliferative effect [1] was “dose-dependent anti-proliferative effect”, the “time of tumor grafting” value ([2]; three administrations starting after 4 days, Log Rank *p<0.05, FIG. 5A) was “significantly delayed tumor grafting” and the animal survival ([2]; three administrations, Log Rank *p<0.05, FIG. 5B) was “significantly increased the survival of animals”. The “animal survival compared to the LALF32-51 peptide” value ([2]; FIG. 5B) was “more effective than the LALF32-51 peptide”, the “expression of the IFN-γ gene” value [3] was “capable of inducing the expression” and the anti-proliferative effect [4] was “dose-dependent anti-proliferative effect”. The survival of mice [5, 9] was “prolonging survival of mice”, the “tumor progression (tumor mass)” value [5, 9] was “effective for inhibiting tumor progression” and the “survival of animals compared to the LALF32-51 peptide” value ([5]; Log Rank, *p<0.05) was “significantly increase the survival of animals”. For the same sequence, the “metastasis (lung weight)” value [6] was “able to reduce the metastatic tumor events”, the heparin binding [7] was “unable to bind heparin” and the “time of tumor grafting” value ([8]; FIG. 7A) was “retarding the establishment of the tumor”. For the same sequence, the animal survival ([8]; FIG. 7B) was “increasing animal survival”.
